Laboratory results published in patent US20060069132A1, “Azolecarboxamide herbicides” (priority 2004, published 2006).

Assays:
downy bromegrass = test: Test C postemergence herbicide test; type: in vivo, Bromus tectorum
Method in brief: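 Ratings (0 = no effect, 100 = complete control) come from visual comparison with untreated plants after 12 to 14 days in the greenhouse. Treatment was postemergence at the 1- to 4-leaf stage (2–18 cm), or at the 2-leaf stage for the flooded paddy barnyardgrass.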

bermudagrass = test: Test E pre-/postemergence herbicide test; type: in vivo, Cynodon dactylon; conditions: Preemergence
Method in brief: (§1)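 Pre-/postemergence spray, solvent + surfactant vehicle; post timing 1- to 4-leaf stage (2–18 cm). Greenhouse 12–14 d. Visual score 0 (no effect) to 100 (complete control) relative to controls.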

Surinam grass = test: Test E pre-/postemergence herbicide test; type: in vivo, Urochloa decumbens; conditions: Preemergence
Method in brief: as §1

pitted morningglory = test: Test E pre-/postemergence herbicide test; type: in vivo, Ipomoea lacunosa; conditions: Preemergence
Method in brief: as §1

mustard = test: Test E pre-/postemergence herbicide test; type: in vivo, Brassica nigra; conditions: Preemergence
Method in brief: as §1

guineagrass = test: Test E pre-/postemergence herbicide test; type: in vivo, Panicum maximum; conditions: Preemergence
Method in brief: as §1

common sowthistle = test: Test E pre-/postemergence herbicide test; type: in vivo, Sonchus oleraceous; conditions: Preemergence
Method in brief: as §1

Italian ryegrass = test: Test E pre-/postemergence herbicide test; type: in vivo, Lolium multiflorum; conditions: Preemergence
Method in brief: as §1

broadleaf signalgrass = test: Test E pre-/postemergence herbicide test; type: in vivo, Brachiaria platyphylla; conditions: Preemergence
Method in brief: as §1

common chickweed = test: Test E pre-/postemergence herbicide test; type: in vivo, Stellaria media; conditions: Preemergence
Excerpt: (§2) Seeds of plant species selected from bipinnate beggarticks (Bidens bipinnata L.), hairy beggarticks (Bidens radiata Thuill.), bermudagrass (Cynodon dactylon (L.) Pers.), Surinam grass (Urochloa decumbens (Staph) R. D. Webster, previously named Brachiaria decumbens Stapf), large crabgrass (Digitaria sanguinalis (L.) Scop.), green foxtail (Setaria viridis (L.) P. Beauv.), goosegrass (Eleusine indica (L.) Gaertn.), johnsongrass (Sorghum halepense (L.) Pers.), kochia (Kochia scoparia (L.) Schrad.), pitted morningglory (Ipomoea lacunosa L.), purple nutsedge (Cyperus rotundus L.), common ragweed (Ambrosia elatior L.), mustard (Brassica nigra (L.) W. D. J. Koch), guineagrass (Panicum maximum Jacq.), dallisgrass (Paspalum dilatatum Poir.), barnyardgrass (Echinochloa crus-galli (L). P. Beauv.), southern sandbur (Cenchrus echinatus L.), common sowthistle (Sonchus oleraceous L.), prickly sida (Sida spinosa L.), Italian ryegrass (Lolium multiflorum Lam.), common purslane (Portulaca oleracea L.), broadleaf signalgrass (Brachiaria platyphylla (Griseb.) Nash), common groundsel (Senecio vulgaris L.), common chickweed (Stellaria media (L.) Vill/Cyr.), tropical spiderwort (Commelina benghalensis L.), annual bluegrass (Poa annua L.), downy bromegrass (Bromus tectorum L.), itchgrass (Rottboellia cochinchinensis (L.) L.f.), quackgrass (Elytrigia repens (L.) Nevski), Canada horseweed (Erigeron Canadensis L.), field bindweed (Convolvulus arvensis L.), spotted spurge (Euphorbia maculata L.), common mallow (Malva sylvestris (=s silvestris) L.), and Russian thistle (Salsola kali L. ssp. Ruthenica (Iljin) Soo) were planted and treated preemergence with test chemicals formulated in a non-phytotoxic solvent mixture which included a surfactant.
(§3) At the same time, plants selected from these weed species were treated with postemergence applications of some of the test chemicals formulated in the same manner. Plants ranged in height from 2 to 18 cm (1- to 4-leaf stage) for postemergence treatments. Treated plants and controls were maintained in a greenhouse for 12 to 14 days, after which time all species were compared to controls and visually evaluated. Plant response ratings, summarized in Table E, are based on a scale of 0 to 100 where 0 is no effect and 100 is complete control. A dash (-) response means no test result.

Canada horseweed = test: Test E pre-/postemergence herbicide test; type: in vivo, Erigeron Canadensis; conditions: Preemergence
Excerpt: as §2, §3

common mallow = test: Test E pre-/postemergence herbicide test; type: in vivo, Malva sylvestris; conditions: Preemergence
Method in brief: as §1

purple nutsedge = test: Test E pre-/postemergence herbicide test; type: in vivo, Cyperus rotundus; conditions: Preemergence
Method in brief: as §1

[1] = 250 g ai/ha, scale 0 (no effect) to 100 (complete control)
[2] = 500 g ai/ha, scale 0 (no effect) to 100 (complete control)

CCNC(=O)c1cccc(NC(=O)c2nn(C(C)(C)C)nc2C)c1 [Compound 392]
75: Plant response rating, Morningglory (pitted morningglory; [2]) | Plant response rating, Guineagrass (guineagrass; 62 g ai/ha, scale 0 to 100) | Plant response rating, Horseweed (Canada horseweed; [1])
35: Plant response rating, Bromegrass, Downy (downy bromegrass; postemergence, 62 g ai/ha, scale 0 to 100)
100: Plant response rating, Black Mustard (mustard; [2]) | Plant response rating, Guineagrass (guineagrass; [2])
85: Plant response rating, Bermudagrass (bermudagrass; [1]) | Plant response rating, Black Mustard (mustard; [1]) | Plant response rating, Signalgrass (broadleaf signalgrass; [2]) | Plant response rating, Horseweed (Canada horseweed; [2])
10: Plant response rating, Morningglory (pitted morningglory; 62 g ai/ha, scale 0 to 100) | Plant response rating, Ryegrass, Italian (Italian ryegrass; 62 g ai/ha, scale 0 to 100) | Plant response rating, Signalgrass (broadleaf signalgrass; 62 g ai/ha, scale 0 to 100) | Plant response rating, Mallow (common mallow; 62 g ai/ha, scale 0 to 100)
70: Plant response rating, Ryegrass, Italian (Italian ryegrass; [1]) | Plant response rating, Signalgrass (broadleaf signalgrass; [1])
30: Plant response rating, Signalgrass (broadleaf signalgrass; 125 g ai/ha, scale 0 to 100)
95: Plant response rating, Surinam Grass (Surinam grass; [2]) | Plant response rating, Guineagrass (guineagrass; [1]) | Plant response rating, Sowthistle (common sowthistle; 125 g ai/ha, scale 0 to 100) | Plant response rating, Sowthistle (common sowthistle; [1]) | Plant response rating, Sowthistle (common sowthistle; [2]) | Plant response rating, Chickweed (common chickweed; 125 g ai/ha, scale 0 to 100) | Plant response rating, Chickweed (common chickweed; [1]) | Plant response rating, Chickweed (common chickweed; [2]) | Plant response rating, Mallow (common mallow; [1]) | Plant response rating, Mallow (common mallow; [2])
40: Plant response rating, Morningglory (pitted morningglory; 125 g ai/ha, scale 0 to 100) | Plant response rating, Morningglory (pitted morningglory; [1])
20: Plant response rating, Sowthistle (common sowthistle; 62 g ai/ha, scale 0 to 100)
60: Plant response rating, Bromegrass, Downy (downy bromegrass; Postemergence, 500 g ai/ha, scale 0 to 100, 0 no effect, 100 complete control) | Plant response rating, Bermudagrass (bermudagrass; 62 g ai/ha, scale 0 to 100) | Plant response rating, Bermudagrass (bermudagrass; 125 g ai/ha, scale 0 to 100) | Plant response rating, Surinam Grass (Surinam grass; 125 g ai/ha, scale 0 to 100) | Plant response rating, Black Mustard (mustard; 62 g ai/ha, scale 0 to 100) | Plant response rating, Ryegrass, Italian (Italian ryegrass; 125 g ai/ha, scale 0 to 100) | Plant response rating, Chickweed (common chickweed; 62 g ai/ha, scale 0 to 100) | Plant response rating, Horseweed (Canada horseweed; 62 g ai/ha, scale 0 to 100) | Plant response rating, Horseweed (Canada horseweed; 125 g ai/ha, scale 0 to 100)
55: Plant response rating, Bromegrass, Downy (downy bromegrass; Postemergence, 250 g ai/ha, scale 0 to 100, 0 no effect, 100 complete control) | Plant response rating, Bromegrass, Downy (downy bromegrass; postemergence, 125 g ai/ha, scale 0 to 100)
80: Plant response rating, Guineagrass (guineagrass; 125 g ai/ha, scale 0 to 100) | Plant response rating, Ryegrass, Italian (Italian ryegrass; [2]) | Plant response rating, Mallow (common mallow; 125 g ai/ha, scale 0 to 100)
90: Plant response rating, Bermudagrass (bermudagrass; [2])

CCc1nn(C(C)(C)C)nc1C(=O)Nc1cccc(C(=S)N(C)C)c1 [Compound 395]
50: Plant response rating, Nutsedge, Purple (purple nutsedge; 125 g ai/ha, scale 0 to 100) | Plant response rating, Mallow (common mallow; 125 g ai/ha, scale 0 to 100)
75: Plant response rating, Surinam Grass (Surinam grass; 125 g ai/ha, scale 0 to 100) | Plant response rating, Morningglory (pitted morningglory; [1]) | Plant response rating, Morningglory (pitted morningglory; [2]) | Plant response rating, Signalgrass (broadleaf signalgrass; 125 g ai/ha, scale 0 to 100)
80: Plant response rating, Nutsedge, Purple (purple nutsedge; [2]) | Plant response rating, Guineagrass (guineagrass; 62 g ai/ha, scale 0 to 100) | Plant response rating, Ryegrass, Italian (Italian ryegrass; 125 g ai/ha, scale 0 to 100)
100: Plant response rating, Guineagrass (guineagrass; 125 g ai/ha, scale 0 to 100) | Plant response rating, Guineagrass (guineagrass; [1]) | Plant response rating, Guineagrass (guineagrass; [2]) | Plant response rating, Chickweed (common chickweed; [1]) | Plant response rating, Chickweed (common chickweed; [2]) | Plant response rating, Horseweed (Canada horseweed; 125 g ai/ha, scale 0 to 100) | Plant response rating, Horseweed (Canada horseweed; [1]) | Plant response rating, Horseweed (Canada horseweed; [2])
85: Plant response rating, Signalgrass (broadleaf signalgrass; [1])
20: Plant response rating, Morningglory (pitted morningglory; 62 g ai/ha, scale 0 to 100) | Plant response rating, Ryegrass, Italian (Italian ryegrass; 62 g ai/ha, scale 0 to 100) | Plant response rating, Mallow (common mallow; 62 g ai/ha, scale 0 to 100)
60: Plant response rating, Black Mustard (mustard; 125 g ai/ha, scale 0 to 100) | Plant response rating, Mallow (common mallow; [2])
10: Plant response rating, Signalgrass (broadleaf signalgrass; 62 g ai/ha, scale 0 to 100)
70: Plant response rating, Nutsedge, Purple (purple nutsedge; [1])
95: Plant response rating, Bermudagrass (bermudagrass; 125 g ai/ha, scale 0 to 100) | Plant response rating, Bermudagrass (bermudagrass; [1]) | Plant response rating, Bermudagrass (bermudagrass; [2]) | Plant response rating, Black Mustard (mustard; [2]) | Plant response rating, Ryegrass, Italian (Italian ryegrass; [2])
40: Plant response rating, Morningglory (pitted morningglory; 125 g ai/ha, scale 0 to 100) | Plant response rating, Black Mustard (mustard; 62 g ai/ha, scale 0 to 100)
90: Plant response rating, Bermudagrass (bermudagrass; 62 g ai/ha, scale 0 to 100) | Plant response rating, Surinam Grass (Surinam grass; [2]) | Plant response rating, Black Mustard (mustard; [1]) | Plant response rating, Ryegrass, Italian (Italian ryegrass; [1]) | Plant response rating, Signalgrass (broadleaf signalgrass; [2]) | Plant response rating, Chickweed (common chickweed; 125 g ai/ha, scale 0 to 100) | Plant response rating, Horseweed (Canada horseweed; 62 g ai/ha, scale 0 to 100)
